{
  "source": "patent US20230082358A1",
  "about": "“3D PRINTED UV CROSSLINKING MASKS” (University of Maryland, College Park, priority 2021, published 2023)",
  "format_in_all_cases": "cell-based",
  "key": {"[1]": {"tested_on": "Human umbilical vein endothelial cells (HUVECs)", "experiment": "Scratch assay, HUVECs", "settings": "p<0.05", "procedure": "HUVECs were treated in culture with treatment medium for 48 h. Treatment medium contained 0.1, 1, 10, 100, or 1000 μg/mL heparin in Medium 200 (with LSGS), while the control was medium only. The medium was replaced daily for the duration of this study. A 48-well plate was treated for 45 min with 200 μL of 0.1% wt/vol porcine gelatin (Sigma-Aldrich, St. Louis, Mo.) in DI water at 37° C. Cells were seeded in the well plate at a density of 100,000 cells/well in 800 μL of Medium 200 (with LSGS). Cells were left to adhere for 24 h before the medium was replaced. Scratches were made with a 200 μL pipette tip. Cells were imaged for 1 to 16 h after the scratches were made. ImageJ was used to quantify the gap distance in one image for each well (n=6). Gap closure (%) was reported as\nwhere lo is the original gap length and lt is the gap length at a given time. The gap closure speed was defined as the slope of gap length curve with respect to time and was normalized to that of the 0 μg/mL group."}, "[2]": {"tested_on": "Human umbilical vein endothelial cells (HUVECs)", "experiment": "Actin immunostaining / adhesion, HUVECs", "settings": "72 h treatment", "procedure": "(§1) HUVECs were treated in culture with treatment medium for 72 h. Treatment medium contained 0.1, 1, 10, 100, or 1000 μg/mL heparin in Medium 200 (with LSGS), while the control was medium only. The medium was replaced daily for the duration of this study. Cells were seeded in 96-well plate at a density of 30,000 cells/well in 200 μL of Medium 200 (with LSGS). Cells were left to adhere for 2 h before the medium was removed. Cells were fixed with 10% formalin and permeabilized. Wells were stained for 1 h with Alexa Fluor 488 Phalloidin (1:100, 100 μL, A12379, Invitrogen). Then the cells were stained with DAPI solution (3 μg/mL in PBS) for 10 min. Wells were imaged with an Eclipse Ti2 microscope under FITC excitation (465-495 nm) and emission (515-555 nm) and DAPI excitation (340-380 nm) and emission (435-485 nm). MATLAB was used to quantify the area of the green channel and count the cells in the blue channel for 3 images of each of the 3 wells (n=9) to calculate a ratio of F-actin area to number of cells."}, "[3]": {"tested_on": "Human umbilical vein endothelial cells (HUVECs)", "experiment": "vWF immunostaining, HUVECs", "settings": "higher heparin concentrations; up to 120 h", "procedure": "(§2) HUVECs were seeded in 96-well plates at a density of 3,500 cells/well in 235 μL of Medium 200 (with LSGS). Cells were left overnight to adhere before medium was replaced with 200 μL of treatment medium, which contained 0.1, 1, 10, 100, or 1000 μg/mL heparin in Medium 200 (with LSGS), while the control was medium only. The medium was replaced daily for the duration of this study. Cells were fixed with 10% formalin and permeabilized. Wells were treated overnight with anti-von Willebrand factor antibody (1:200, 100 μL, ab9378, Abcam, Cambridge, Mass.). The secondary antibody used was Alexa Fluor 633 (4 μg/mL, Invitrogen, Carlsbad, Calif.). Then the cells were stained with DAPI solution (3 μg/mL in PBS) for 10 min. Wells were imaged with an Eclipse Ti2 microscope (Nikon, Tokyo, Japan) under Cy5 excitation (625-650 nm) and emission (670 nm) and DAPI excitation (340-380 nm) and emission (435-485 nm). MATLAB was used to quantify the intensity of the red channel and count the cells in the blue channel for 3 images of each of the 3 wells (n=9) to calculate a ratio of vWF intensity to number of cells."}, "[4]": {"tested_on": "Human umbilical artery endothelial cells (HUAECs)", "experiment": "HUAECs heparin release study, vWF immunostaining", "settings": "48 h, p<0.05", "procedure": "as §2, with “Wells were imaged with an Eclipse Ti2 microscope (Nikon, Tokyo, Japan) under Cy5 excitation (625-650 nm) and emission (670 nm) and DAPI excitation (340-380 nm) and emission (435-485 nm).” left out\n(§3) Human umbilical artery endothelial cells (HUAECs) (Sigma-Aldrich) were seeded in MesoEndo Cell Growth Medium (Sigma-Aldrich) with the appropriate heparin treatment. […] Immunostaining and quantification was completed as described above at 48 h. Tissue factor pathway inhibitor (TFPI) was quantified with DuoSet ELISA kit (R&D Systems, Minneapolis, Minn.) according to the manufacturer's protocol. […]"}, "[5]": {"tested_on": "Human umbilical vein endothelial cells (HUVECs)", "experiment": "Cell metabolic activity assay (XTT), HUVECs", "settings": "100 and 1000 μg/mL heparin; 24, 72 and 120 h; p<0.05", "procedure": "(§4) Human umbilical vein endothelial cells (HUVECs) (ThermoFisher Scientific, Waltham, Mass.) were seeded in 48-well plates at a density of 10,000 cells/well in 1 mL of Medium 200 (with manufacturer's required Low Serum Growth Supplement LSGS, ThermoFisher Scientific). Cells were left overnight to adhere before medium was replaced with 1 mL of treatment medium, which contained 0.1, 1, 10, 100, or 1000 μg/mL heparin in Medium 200 (with LSGS), while the control was medium only. The medium was replaced daily for the duration of this study. The electron coupling and XTT labeling reagents from the Cell Proliferation Kit II (XTT) (Roche, Mannheim, Germany) were mixed according to the manufacturer's protocol and added to the cell medium in a ratio of 1 to 2. Cell medium was removed from the wells and the XTT solution was added. It was incubated for 4 h and 100 μL was extracted in triplicate (n=9). The absorbance was measured with a Spark Multimode Microplate Reader (Tecan, Männedorf, Switzerland). Net absorbance was calculated (A475-A650) for each sample and XTT fold change was calculated by normalizing the net absorbance to that at 4 h."}, "[6]": {"tested_on": "Human umbilical artery endothelial cells (HUAECs)", "experiment": "HUAECs heparin release study, phalloidin (F-actin) staining", "settings": "heparin profiles A, B, C; 48 h; p>0.05", "procedure": "as §1, §3"}, "[7]": {"tested_on": "Human umbilical artery endothelial cells (HUAECs)", "experiment": "HUAECs heparin release study, TFPI ELISA", "settings": "for release of TFPI: after 48 h, comparable to 0 μg/mL, more than profiles A and B", "procedure": "Human umbilical artery endothelial cells (HUAECs) (Sigma-Aldrich) were seeded in MesoEndo Cell Growth Medium (Sigma-Aldrich) with the appropriate heparin treatment. For XTT and TFPI ELISA measurements, cells were seeded in a 24-well plate at a density of 150,000 cells/well in 1.8 mL of medium, while for immunostaining, cells were seeded in a 96-well plate at a density of 25,000 cells/well in 300 µL of medium. Treatment medium contained the heparin concentrations detailed in Table 1. One control group was medium only, while the other control group contained 30 μg/mL heparin, an estimate of heparin concentration during surgery. The medium was replaced at 8, 24, and 48 h. XTT was conducted as described above at 24 and 48 h. Immunostaining and quantification was completed as described above at 48 h. Tissue factor pathway inhibitor (TFPI) was quantified with DuoSet ELISA kit (R&D Systems, Minneapolis, Minn.) according to the manufacturer's protocol. The ladder and all samples were run in triplicate (n=9)."}, "[8]": {"tested_on": "Human umbilical artery endothelial cells (HUAECs)", "experiment": "HUAECs heparin release study, XTT", "procedure": "as §4, with “Cell medium was removed from the wells and the XTT solution was added. It was incubated for 4 h and 100 μL was extracted in triplicate (n=9).” left out\nas §3"}},
  "data": [
    {"substance": "heparin", "values": [
      {"measurement": "gap closure over 16 h", "setting": "[1]; 1, 10, 100 and 1000 μg/mL heparin", "result": "significantly decreases"},
      {"measurement": "gap closure speed (normalized to 0 μg/mL)", "setting": "[1]; 10, 100 and 1000 μg/mL heparin", "result": "significantly decreases"},
      {"measurement": "number of cells adhered after 2 h, compared to 0 μg/mL", "setting": "[2]; 1000 μg/mL heparin, p<0.05", "result": "significantly lower"},
      {"measurement": "ratio of F-actin area to number of cells, compared to 0 μg/mL", "setting": "[2]; 1000 μg/mL heparin, p<0.05", "result": "significantly lower"},
      {"measurement": "number of cells adhered after 2 h", "setting": "[2]; 0.1 and 1 μg/mL heparin", "result": "support"},
      {"measurement": "ratio of F-actin area to number of cells", "setting": "[2]; 0.1 and 1 μg/mL heparin", "result": "support"},
      {"measurement": "vWF expression (ratio of vWF intensity to number of cells)", "setting": "[3]", "result": "upward trend"},
      {"measurement": "vWF intensity, profile A versus profile C", "setting": "[4]", "result": "higher"},
      {"measurement": "XTT metabolic activity compared to 0 μg/mL heparin", "setting": "[5]", "result": "significantly decreased"},
      {"measurement": "phalloidin (F-actin) area ratio", "setting": "[6]", "result": "not impacted"},
      {"measurement": "release of TFPI", "setting": "[7]; 30 μg/mL heparin", "result": "highest release of TFPI"},
      {"measurement": "tissue factor pathway inhibitor (TFPI) produced", "setting": "[7]; heparin profile A, after 24 and 48 h, p<0.05", "result": "significantly less"},
      {"measurement": "release of TFPI", "setting": "[7]; heparin profile C", "result": "highest release of TFPI"},
      {"measurement": "XTT metabolic activity of HUAECs at 48 h (normalized to 0 μg/mL)", "setting": "[8]; heparin profile A (246/122/118 μg/mL at 0-8/8-24/24-48 h)", "result": "reduces"},
      {"measurement": "XTT metabolic activity and vWF expression of HUAECs", "setting": "[8]; slower heparin profiles B and C", "result": "unaffected"}
    ]}
  ]
}
